The NIST ThermoML archive (doi:10.1021/acs.jced.7b00750)
± gives the expanded uncertainty stated by the source.

How the values were obtained:
[1] = xn = mol fraction of the nth substance listed; conditions: 100 kPa, Liquid, Vibrating tube method, x2 = 0
[2] = 100 kPa, Liquid, Vibrating tube method

O [water] + CNC(N)=O
[1]
Conditions	mass density [kg/m3]
274.15 K	999.899 ± 0.11
275.15 K	999.94 ± 0.11
276.15 K	999.964 ± 0.11
277.15 K	999.972 ± 0.13
278.15 K	999.964 ± 0.11
279.15 K	999.94 ± 0.11
280.15 K	999.901 ± 0.11
281.15 K	999.848 ± 0.11
282.15 K	999.781 ± 0.11
283.15 K	999.699 ± 0.11
323.15 K	988.03 ± 0.11
333.15 K	983.191 ± 0.11

O [water]
[2]
Conditions	mass density [kg/m3]
274.15 K	999.899 ± 0.11
275.15 K	999.94 ± 0.11
276.15 K	999.964 ± 0.11
277.15 K	999.972 ± 0.13
278.15 K	999.964 ± 0.11
279.15 K	999.94 ± 0.11
280.15 K	999.901 ± 0.11
281.15 K	999.848 ± 0.11
282.15 K	999.781 ± 0.11
283.15 K	999.699 ± 0.11
323.15 K	988.03 ± 0.11
333.15 K	983.191 ± 0.11
